Reference: ChEMBL document CHEMBL6092213, “Rational Exploration of 2,4-Diaminopyrimidines as DHFR Inhibitors Active against Mycobacterium abscessus and Mycobacterium avium, Two Emerging Human Pathogens” (J Med Chem, 2024)
Converted amounts (≈) assume the structure as drawn.

Columns and labels:
[1] = Inhibition of Mycobacterium avium DHFR using 7, 8 dihydrofolate as substrate incubated for 1 hr by plate reader assay
[2] = Inhibition of Mycobacterium abscessus DHFR using 7, 8 dihydrofolate as substrate incubated for 1 hr by plate reader assay; set-up: species or system Mycobacteroides abscessus
Dihydrofolate reductase = target: T1, Dihydrofolate reductase (Homo sapiens, UniProt P00374); assay: Inhibition of human DHFR using 7, 8 dihydrofolate as substrate incubated for 1 hr by plate reader assay; format: toxicity
T1 sequence (P00374 whole entry): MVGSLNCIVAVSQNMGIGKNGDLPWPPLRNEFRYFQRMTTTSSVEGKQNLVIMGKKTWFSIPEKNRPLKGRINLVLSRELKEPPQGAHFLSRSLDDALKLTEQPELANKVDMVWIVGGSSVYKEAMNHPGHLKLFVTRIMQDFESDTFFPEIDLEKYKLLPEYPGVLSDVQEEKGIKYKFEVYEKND

[3] = tested on: Mycobacteroides abscessus; assay: Antibacterial activity against Mycobacterium abscessus ATCC 19977 incubated for 2 days by resazurin microtiter assay; format: functional; settings: ATCC 19977, 48 h, time 2 day
[4] = Solubility of compound in PBS at pH 7.4 incubated for 24 hrs by UPLC analysis; format: physicochemical; settings: for solubility: buffer, pH 7.4, 24 h
[5] = Apparent permeability in MDCK-II cells incubated for 1 hr by LC-MS/MS method; format: ADME, cell-based, Canis lupus familiaris; settings: dog
[6] = Metabolic stability in human liver microsomes assessed as intrinsic clearance at 0.5 uM measured upto 30 mins in presence of NADPH by UPLC-MS/MS analysis; format: ADME, Microsome; settings: 0.5 h
[7] = Metabolic stability in mouse hepatocytes assessed as intrinsic clearance at 0.5 uM measured upto 120 mins in presence of NADPH by UPLC-MS/MS analysis; format: ADME, cell-based, Hepatocyte; settings: 2 h
[8] = Metabolic stability in human hepatocytes assessed as intrinsic clearance at 0.5 uM measured upto 120 mins in presence of NADPH by UPLC-MS/MS analysis; format: ADME, cell-based, Hepatocyte; settings: 2 h
[9] = Clearance in mouse; format: ADME, organism-based; settings: in vivo
[10] = Volume of distribution in mouse; format: ADME, organism-based; settings: in vivo
[11] = Half-life in mouse; format: ADME, organism-based; settings: in vivo
HepG2 = assay: Cytotoxicity against human HepG2 cells assessed as viable cells at 100 uM incubated for 72 hrs by resazurin dye based plate reader assay; format: toxicity, cell-based; settings: hepg2, 72 h
[12] = AUClast in BALB/c mouse at 1 mg/kg, iv measured upto 24 hrs by UPLC/MS-MS analysis; format: ADME, organism-based; settings: in vivo
[13] = AUCinfinity in BALB/c mouse at 1 mg/kg, iv measured upto 24 hrs by UPLC/MS-MS analysis; format: ADME, organism-based; settings: in vivo
[14] = Extrapolated AUC in BALB/c mouse at 1 mg/kg, iv measured upto 24 hrs by UPLC/MS-MS analysis; format: ADME, organism-based; settings: in vivo
[15] = Observed clearance in BALB/c mouse at 1 mg/kg, iv measured upto 24 hrs by UPLC/MS-MS analysis; format: ADME, organism-based; settings: in vivo
[16] = Observed volume of distribution at steady state in BALB/c mouse at 1 mg/kg, iv measured upto 24 hrs by UPLC/MS-MS analysis; format: ADME, organism-based; settings: in vivo
[17] = Half-life in BALB/c mouse at 1 mg/kg, iv measured upto 24 hrs by UPLC/MS-MS analysis; format: ADME, organism-based; settings: in vivo
[18] = AUClast in BALB/c mouse at 3 mg/kg, po measured upto 24 hrs by UPLC/MS-MS analysis; format: ADME, organism-based; settings: in vivo
[19] = Cmax in BALB/c mouse at 3 mg/kg, po measured upto 24 hrs by UPLC/MS-MS analysis; format: ADME, organism-based; settings: in vivo
[20] = Tmax in BALB/c mouse at 3 mg/kg, po measured upto 24 hrs by UPLC/MS-MS analysis; format: ADME, organism-based; settings: in vivo
[21] = Oral bioavailability in BALB/c mouse at 3 mg/kg measured upto 24 hrs by UPLC/MS-MS analysis; format: ADME, organism-based; settings: in vivo
[22] = Unbound fraction in mouse plasma; format: ADME, cell-free
[23] = Lipophilicity, logP of compound; format: physicochemical; settings: octanol/water

| SMILES | IC50 [1] [nM] | IC50 [2] [nM] | MIC [3] [µg/mL] | IC50 (Dihydrofolate reductase) [nM] | other results |
| --- | --- | --- | --- | --- | --- |
| CCc1nc(N)nc(N)c1OCCCOc1ccccc1CCC(=O)O | 4.3 | 0.8 | 10.1 (≈ 28 µM) | 120 | solubility [4]: 233 µM (≈ 84 µg/mL); Papp [5]: 3 ×10⁻⁶ cm/s; intrinsic clearance [6]: < 0.4 mL/min/g; CLH [7]: < 0.76 mL/min/g; intrinsic clearance [8]: < 0.66 mL/min/g; clearance [9]: 43.6 mL/min/kg; Vd [10]: 2.5 L/kg; half-life [11]: 39 min |
| CCCCCc1nc(N)nc(N)c1OCCCOc1ccccc1CCC(=O)O | 4.5 | 8.3 | 0.6 (≈ 1.49 µM) | 430 |  |
| Nc1ncc(OCCCOc2ccccc2CCC(=O)O)c(N)n1 | 220 | 990 |  | 9700 |  |
| Nc1nc(N)c(OCCCOc2ccccc2CCC(=O)O)c(CCCCO)n1 | 5 | 4.9 | 0.1 (≈ 0.247 µM) | 460 | solubility [4]: 227 µM (≈ 91.8 µg/mL); Papp [5]: 0.8 ×10⁻⁶ cm/s; intrinsic clearance [6]: < 0.4 mL/min/g; CLH [7]: < 0.76 mL/min/g; intrinsic clearance [8]: < 0.66 mL/min/g |
| Nc1nc(N)c(OCCCOc2ccccc2CCC(=O)O)c(C2CCNCC2)n1 | 63 | 30 | 6.2 (≈ 14.9 µM) | > 5000 |  |
| Nc1nc(N)c(OCCCOc2ccccc2CCC(=O)O)c(-c2ccccc2)n1 | 7 | 17 | 0.3 (≈ 0.734 µM) | > 5000 | solubility at 24 h ([4]; PBS, pH 7.4): 52 µM (≈ 21.2 µg/mL); Papp [5]: 5.4 ×10⁻⁶ cm/s; intrinsic clearance [6]: 0.43 mL/min/g; CLH [7]: 2.2 mL/min/g; intrinsic clearance [8]: < 0.66 mL/min/g |
| Nc1nc(N)c(OCCCOc2ccccc2CCC(=O)O)c(-c2ccccc2C(F)(F)F)n1 | 28 | 42 | 3.6 (≈ 7.56 µM) | > 5000 |  |
| Nc1nc(N)c(OCCCOc2ccccc2CCC(=O)O)c(C2CCCCC2)n1 | 6.3 | 1.1 | 0.1 (≈ 0.241 µM) | 2100 | solubility [4]: 43 µM (≈ 17.8 µg/mL); Papp [5]: 3.2 ×10⁻⁶ cm/s; intrinsic clearance [6]: 0.54 mL/min/g; CLH [7]: 2.2 mL/min/g; intrinsic clearance [8]: < 0.66 mL/min/g; Activity (HepG2): > 60%; AUClast [12]: 40507 ng·min/mL; AUC [13]: 42750 ng·min/mL; %AUCextra [14]: 5%; clearance [15]: 23 mL/min/kg; Vdss [16]: 0.9 L/kg; t1/2 [17]: 30 min; AUClast [18]: 49232 ng·min/mL; Cmax [19]: 279 ng/mL; Tmax [20]: 30 min; F [21]: 41%; Fu [22]: ~ 0.02; logP [23]: 3.6 |
| Nc1nc(N)c(OCCCOc2ccccc2CCC(=O)O)c(-c2cccc(C(F)(F)F)c2)n1 | 1900 | 320 |  | > 5000 |  |
| COc1ccc(-c2nc(N)nc(N)c2OCCCOc2ccccc2CCC(=O)O)cc1 | 5.2 | 17 | 0.2 (≈ 0.456 µM) | 700 | solubility [4]: 67 µM (≈ 29.4 µg/mL); Papp [5]: 4.1 ×10⁻⁶ cm/s; intrinsic clearance [6]: < 0.4 mL/min/g; CLH [7]: 0.59 mL/min/g; intrinsic clearance [8]: < 0.66 mL/min/g |
| NCC[C@H](O)C(=O)N[C@@H]1C[C@H](N)[C@@H](O[C@H]2O[C@H](CN)[C@@H](O)[C@H](O)[C@H]2O)[C@H](O)[C@H]1O[C@H]1O[C@H](CO)[C@@H](O)[C@H](N)[C@H]1O [AMIKACIN] |  |  | 1.7 (≈ 2.9 µM) |  |  |

Now from value to molecule, other results behind:

| IC50 [1] [nM] | IC50 [2] [nM] | MIC [3] [µg/mL] | SMILES | IC50 (Dihydrofolate reductase) [nM] | other results |
| --- | --- | --- | --- | --- | --- |
| > 5000 | > 5000 |  | COc1nc(N)nc(N)c1OCCCOc1ccccc1CCC(=O)O | > 5000 |  |
| 17 | 77 | 0.6 (≈ 1.47 µM) | Nc1nc(N)c(OCCCOc2ccccc2CCC(=O)O)c(-c2ccncc2)n1 | > 5000 |  |
| > 5000 | > 5000 |  | CCCCOc1nc(N)nc(N)c1OCCCOc1ccccc1CCC(=O)O | > 5000 |  |
| > 5000 | > 5000 |  | CCCOc1nc(N)nc(N)c1OCCCOc1ccccc1CCC(=O)O | > 5000 |  |
| 210 | 210 |  | COc1ccccc1-c1nc(N)nc(N)c1OCCCOc1ccccc1CCC(=O)O | > 5000 |  |
| 240 | 45 | 12.9 (≈ 33.1 µM) | NCCCc1nc(N)nc(N)c1OCCCOc1ccccc1CCC(=O)O | > 5000 |  |
| 60 | 13 | 5.6 (≈ 12.8 µM) | COc1cccc(-c2nc(N)nc(N)c2OCCCOc2ccccc2CCC(=O)O)c1 | > 5000 |  |
| 3.8 | 0.86 |  | CCCc1nc(N)nc(N)c1OCCCOc1ccccc1CCC(=O)O | 7.2 |  |
